Data reported in US20030186464A1, “Surface plasmon resonance methods” (priority 2002, published 2003).
Substitutions are numbered along the chain they refer to.

What was measured:
IL1R-I13C = molecular target: T1, IL1R-I13C (Homo sapiens, UniProt P14778, I30C); experiment: SPR ranking of reversible covalent (disulfide) bond formation with immobilized protein-thiolate (Examples 5-6); assay type: binding; details: disulfide compound 100 μM, reductant 500 μM; fraction of protein-thiolate on the chip covalently bound
T1 construct: soluble interleukin-1 receptor, type 1 having a mutation to cysteine; made in house; host or cells: E. coli or baculovirus-infected insect cells (TN-5B1-4, High Five)
T1 sequence (P14778 18-336 I30C): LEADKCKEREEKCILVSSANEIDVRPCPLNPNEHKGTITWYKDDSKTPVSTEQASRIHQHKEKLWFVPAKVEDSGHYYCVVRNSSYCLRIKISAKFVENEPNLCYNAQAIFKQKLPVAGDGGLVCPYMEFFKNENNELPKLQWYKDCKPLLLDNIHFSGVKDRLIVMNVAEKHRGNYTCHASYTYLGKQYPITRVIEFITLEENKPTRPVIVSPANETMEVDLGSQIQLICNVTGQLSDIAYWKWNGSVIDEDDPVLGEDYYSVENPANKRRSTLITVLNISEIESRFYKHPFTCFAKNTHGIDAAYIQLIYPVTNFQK
Experimental: (§1) A CM5 sensor chip (Biacore-BR-1000-14) is docked in a Biacore 2000 SPR device, and the chip is normalized using a standard Biacore protocol with 70% glycerol. The chip is equilibrated in PBS for approximately 1 hr at a 20 μL/min flow rate. The dextran surface of the chip is activated through an NHS/EDC coupling. This is done using an amine coupling kit (Biacore—BR-100-50) containing N-hydroxysuccinimide (NHS 11.5 mg/mL) and N-ethyl-N′-(3-dimethylaminopropyl) carbodiimide hydrochloride (EDC 75 mg/mL). The two reagents are mixed in a 1:1 ratio and then 35 μL of the mixture are injected at 5 μL/min. The chip is activated one flow cell at a time, and that flow cell is subsequently labeled with protein.
(§2) Protein having at least one cysteine is expressed in E. coli or baculovirus-infected insect cells (TN-5B1-4, High Five) and purified using standard procedures. This protein-thiolate is treated with 10 mM βME overnight to reduce the surface cysteine. The βME is removed and the protein-thiolate is placed in 100 mM MES Buffer pH 5.75 (Nap-5 column, Pierce). The protein-thiolate is then concentrated to 100 μM using a Millipore-UFV5BCCOO 5K NMWL membrane, 0.5 mL centrifugal filter and tube.
(§3) A sensorgram is then run over the activated flow cell at 2 μL/min of PBS. The protein-thiolate solution is then injected at 2 μL/min for 10 min. After injection one measures the change in RUs by marking the RUs at t=0 and t final and subtracting them. This subtraction gives the total RU change that is related to the total mass of protein successfully coupled to the CM5 surface. This value will later be used to determine stoichiometry of binding. This procedure is then repeated with various cysteine mutants that are immobilized on the adjacent cells. The sensorgram is then altered to flow across all 4 cells on the CM5 chip at 5,L/min PBS. A solution of 1 M ethanolamine hydrochloride-NaOH pH 8.5 (Amine coupling kit, Biacore—BR-100-50) is injected at 5 μL/min for 7 min. The chip is equilibrated overnight in 100 mM Tris pH 8+0.05% azide+1% DMSO at 20 μL/min.
(§4) Compounds are synthesized with a reactive disulfide linker (see, for example compound 2t in Example 2). From previous “tethering” experiments compounds that preferentially bind and form a covalent bond with specific cysteine mutants at the active sites of proteins are chosen for these SPR experiments. The compounds are known to form this covalent attachment at relatively high levels of reductant [βME (2-mercaptoethanol, Sigma)], indicating a […] noncovalent binding interaction.
(§5) Dilutions series of the compounds are typically performed to produce seven solutions with compound concentrations of 50 mM, 25 mM, 12.5 mM, 6.25 mM, 3.12 mM, 1.56 mM, and 0.78 mM in DMSO, with a final eighth point as a DMSO only baseline. The compounds are then diluted into 100 mM Tris pH 8+0.05% azide+500 μM βME, to final compound concentrations of 500 μM, 250 μM, 125 μM, 62.5 μM, 31.2 μM, 15.6 μM, and 7.8 μM. The compound solutions are injected from lowest concentration to highest at 2 μL/min for 20 min. The SPR software method includes a 1 min wash before injection, the injection and then a 10 min wash after the injection. This particular protocol employs a regeneration step to reduce off the compound that is covalently bound before the next injection. The regeneration is accomplished by injecting 10 mM βME at 2 μL/min for 20 min.
(§6) These dilution series are analyzed by BIAevaluation software version 3.0. Sensorgrams are plotted for compound binding to cells of the chip labeled with protein-thiolate. The sensorgrams are modified by subtracting the sensorgrams for the appropriate compound dilutions over cell 1 (a blank cell). This subtraction step removes any RU changes that might occur due to nonspecific interactions between the compound and the chip itself or refractive changes in the buffer. Finally, the eight sensorgrams produced from the compound dilution series are zeroed at the average of their starting RUs. […]

IL1R-I29C = molecular target: T2, IL1R-I29C (Homo sapiens, UniProt P14778); experiment: as above; assay type: binding; details: disulfide compound 100 μM, reductant 500 μM; fraction of protein-thiolate on the chip covalently bound
T2 construct: soluble interleukin-1 receptor, type 1 having a mutation to cysteine; made in house; host or cells: E. coli or baculovirus-infected insect cells (TN-5B1-4, High Five)
T2 sequence (P14778 18-336 E146C): T1 sequence (P14778 18-336 I30C) with C13I, E129C
Experimental: as §1, §2, §3, §4, §5, §6

| Fraction bound IL1R-I13C (IL1R-I13C) | Fraction bound IL1R-I29C (IL1R-I29C) | Compound |
| --- | --- | --- |
| 0.5 | 0.0 | CC(=O)c1ccccc1NC(=O)c1ccc(NC(=O)CSSCCN)cc1 [Compound 12t] |
| 0.0 | 0.0 | COC(=O)c1cccc(NC(=O)c2ccc(NC(=O)CSSCCN)cc2)c1 [Compound 13t] |
| 0.0 | 0.6 | NCCSSCCC(=O)NC(c1ccccc1)c1cc2ccccc2cn1 (centres unmarked) [Compound 14t] |
| 0.0 | 0.2 | COc1cc(C(=O)N2CCCC(C(=O)NCCSSCCN)C2)ccc1O (centres unmarked) [Compound 15t] |
